Like-named read-outs stand apart in the source and are kept apart here.
Assays:
[1] = format: in vivo, human; conditions: for Detection in human plasma: after oral Gumiganghwal-tang tablets at maximum daily dose (9.6 g); for Shape of plasma concentration-time profile: after oral Gumiganghwal-tang tablets (9.6 g), humans; for AUC(0-inf) / Cmax / Tmax / Vd/F / half-life: male, human, po, 9.6 g
[2] = Freeze-thaw stability in human plasma; format: in vitro ADME; conditions: −80 °C/25 °C, mean ± SD, n = 5, %

| SMILES | Detection in human plasma [1] | Freeze-thaw stability (3 cycles) ([2]; spiked conc. 400 ng/mL) [%] | Shape of plasma concentration-time profile [1] | AUC(0-inf) ([1]; plasma) [ng·h/mL] | Cmax ([1]; plasma) [ng/mL] | Tmax ([1]; plasma) [h] | half-life ([1]; plasma) [h] | Freeze-thaw stability (3 cycles) ([2]; spiked conc. 2 ng/mL) [%] | also measured |
| --- | --- | --- | --- | --- | --- | --- | --- | --- | --- |
| CC1(C)[C@@H](O[C@H]2O[C@H](C(=O)O)[C@@H](O)[C@H](O)[C@H]2O[C@@H]2O[C@H](C(=O)O)[C@@H](O)[C@H](O)[C@H]2O)CC[C@]2(C)[C@H]3C(=O)C=C4[C@@H]5C[C@@](C)(C(=O)O)CC[C@]5(C)CC[C@@]4(C)[C@]3(C)CC[C@@H]12 [Glycyrrhizin, glycyrrhizin] |  | 99.43 ± 2.90 | double peaks | 67.6 ± 15.3 | 2.16 ± 1.04 | 8.04 ± 1.16 | 28.8 ± 4.24 | 97.58 ± 4.38 | Vd/F ([1]; plasma): 5860 ± 1090 L |
| OC[C@H]1O[C@@H](O[C@@H]2OC=C[C@H]3[C@H](O)[C@@H]4O[C@]4(CO)[C@@H]23)[C@H](O)[C@@H](O)[C@@H]1O [Catalpol, catalpol] | not detected |  |  |  |  |  |  | 101.28 ± 2.95 | Freeze-thaw stability (3 cycles) ([2]; spiked conc. 500 ng/mL): 100.03 ± 2.84% |
| CC(C)=CCOc1c2occc2cc2ccc(=O)oc12 [Imperatorin, imperatorin] | not detected | 101.28 ± 2.93 |  |  |  |  |  | 98.44 ± 2.60 |  |
| C=C1CCC[C@]2(C)C[C@]3(O)OC(=O)C(C)=C3C[C@@H]12 [Atractylenolide III, atractylenolide III] |  | 96.73 ± 4.82 | double peaks | 417 ± 99.3 | 17.5 ± 5.6 | 4.33 ± 1.21 | 24.2 ± 5.29 | 99.57 ± 2.04 | Vd/F ([1]; plasma): 26.2 ± 6.26 L |
| CC1(C)[C@@H](O)CC[C@]2(C)[C@H]3C(=O)C=C4[C@@H]5C[C@@](C)(C(=O)O)CC[C@]5(C)CC[C@@]4(C)[C@]3(C)CC[C@@H]12 [18-beta-glycyrrhetinic acid] |  |  | double peaks | 988 ± 125 | 89.7 ± 14.4 | 6.42 ± 1.01 | 12.1 ± 2.28 |  |  |
| O=c1ccc2cc3ccoc3c(O)c2o1 [Xanthotoxol, xanthotoxol] |  | 98.83 ± 2.95 | double peaks | 110 ± 38.6 | 3.78 ± 1.39 | 4.48 ± 1.76 | 8.98 ± 3.01 | 102.24 ± 4.31 |  |

Second part, led by results:

| Detection in human plasma [1] | Freeze-thaw stability (3 cycles) ([2]; spiked conc. 400 ng/mL) [%] | Shape of plasma concentration-time profile [1] | AUC(0-inf) ([1]; plasma) [ng·h/mL] | Cmax ([1]; plasma) [ng/mL] | Tmax ([1]; plasma) [h] | half-life ([1]; plasma) [h] | Freeze-thaw stability (3 cycles) ([2]; spiked conc. 2 ng/mL) [%] | SMILES | also measured |
| --- | --- | --- | --- | --- | --- | --- | --- | --- | --- |
| not detected | 101.10 ± 2.84 |  |  |  |  |  |  | C=CCc1ccc(OC)c(OC)c1 [Methyl eugenol, methyl eugenol] | Freeze-thaw stability (3 cycles) ([2]; spiked conc. 5 ng/mL): 98.48 ± 2.51% |
|  | 99.31 ± 2.36 | double peaks | 449 ± 103 | 4.46 ± 1.29 | 8.25 ± 2.07 | 70.5 ± 10.6 | 100.16 ± 1.88 | CC1(C)O[C@H]1COc1c2ccoc2cc2oc(=O)ccc12 [Oxypeucedanin, oxypeucedanin] | Vd/F ([1]; plasma): 275 ± 56.4 L |
|  | 100.00 ± 2.30 | double peaks | 540 ± 122 | 52.6 ± 21.2 | 0.78 ± 0.23 | 7.78 ± 1.91 | 96.92 ± 5.31 | O=c1cc(-c2ccccc2)oc2cc(O)c(O)c(O)c12 [Baicalein, baicalein] |  |
| not detected | 99.46 ± 2.59 |  |  |  |  |  | 97.79 ± 3.42 | CC(C)=CC(O)C/C(C)=C/COc1c2ccoc2cc2oc(=O)ccc12 (stereo not drawn) [Notopterol, notopterol] |  |
| not detected |  |  |  |  |  |  | 97.78 ± 4.39 | OCC1=C[C@@H](O)[C@@H]2C=CO[C@@H](O[C@@H]3O[C@H](CO)[C@@H](O)[C@H](O)[C@H]3O)[C@H]12 [Aucubin, aucubin] | Freeze-thaw stability (3 cycles) ([2]; spiked conc. 500 ng/mL): 100.15 ± 2.79% |
|  | 97.95 ± 3.22 | double peaks |  |  |  |  | 99.53 ± 2.03 | O=C(O)[C@H]1O[C@@H](Oc2cc3oc(-c4ccccc4)cc(=O)c3c(O)c2O)[C@H](O)[C@@H](O)[C@@H]1O [Baicalin, baicalin] | AUC(0-inf) ([1]; in vivo): 805000 ± 121000 ng·h/mL; Cmax ([1]; in vivo): 34300 ± 5220 ng/mL; Tmax ([1]; in vivo): 7.99 ± 1.52 h; Vd/F ([1]; in vivo): 2.5 ± 0.21 L; half-life ([1]; in vivo): 14.4 ± 3.98 h |
